Test results published in patent US8906888B2, “Low-calcemic 16,23-diene 25-oxime analogs of 1α,25-dihydroxy vitamin D3” (Cytochroma Inc., priority 2005, dated 2014).

Experiments:
[1] = Standard hypercalcemia assay (urine calcium, oral daily dosing for one week); assay type: in vivo; conditions: rat
[2] = system: CYP24 mRNA; assay: CYP24 transcriptional activation assay in U-937 cells (real time PCR); assay type: cell-based, human; conditions: six hours, normalized to GAPDH, 100 nM calcitriol set to 100%
Method: 1α,25(OH)2D3 1 mM reconstituted in isopropanol
• Sodium pyruvate • Non-essential amino acids • HEPES • 10% fetal bovine serum Phorbol 12-myristate 13-acetate (PMA) 24-well plate Isopropanol TRIzol® reagent (Invitrogen) Chloroform Ethanol Diethylpyrocarbonate treated dH2O Thermoscript™ RT-PCR System kit (Invitrogen) Human CYP24 TaqMan® Probe (Applied Biosystems Inc) Human GAPDH TaqMan® Probe (Applied Biosystems Inc) TaqMan® Universal Master Mix Probe (Applied Biosystems Inc) (ii) Procedure:
1. Cell Culture, Stimulation and Plating • Cultured U-937 cells in 4+RPMI media to a level of ≈80% confluence. Pelleted cells by centrifugation and resuspended to a concentration of 5×10^5 cells per 1 ml media. Treated U-937 cells with a final concentration of PMA of 20 ng/ml. To each well, of a 24-well plate, added 1 ml of cell suspension and incubated overnight at 37° C., in a humidified atmosphere containing 5% CO2, for adherence of cells to the wells.
2. Cell Treatment and TRIzol® Addition • Changed the media with 1 ml of fresh 4+RPMI media. Added 1 μl of the working solutions of 1, 10, and 100 μM of the compound being tested, in triplicate. Added 1 μl of isopropanol as a control, in triplicate. Incubated the cells for six hours at 37° C., in a humidified atmosphere containing 5% CO2, aspirated off the media and then added 1 ml of TRIzol® reagent. Transferred TRIzol® with cell lysate to a 1.7 ml microcentrifuge tube and stored at −80° C.
3. […] Determined the concentration of RNA using a spectrophotometer to measure the optical density of each sample, at a wavelength of 260 nm. […]
4. CYP24/GAPDH Real Time PCR • Determined the amount of CYP24 and GAPDH mRNA present in each sample using commercial TaqMan® probes, from Applied Biosystems Inc. (Foster City, Calif.). Detected both genes in the same 20 μl reaction, using an ABI PRISM 96-well optical reaction plate and cycle 50 times using an ABI Prism 7000 Sequence Detection System® (ABI). […]

[3] = target: T1, CYP24 (Homo sapiens, UniProt Q07973); assay: CYP24 enzyme assay (V79-CYP24 cells, 3H-1α,25(OH)2D3 substrate); assay type: cell-based; conditions: substrate 20 nM, 2 hours, read-out: IC50 in the inhibition of CYP24
T1 construct: expressed in transfected cells; host or cells: V79-CYP24 cells (V79 = Chinese hamster lung fibroblasts, own knowledge; kept under hygromycin selection)
T1 sequence (Q07973 36-514): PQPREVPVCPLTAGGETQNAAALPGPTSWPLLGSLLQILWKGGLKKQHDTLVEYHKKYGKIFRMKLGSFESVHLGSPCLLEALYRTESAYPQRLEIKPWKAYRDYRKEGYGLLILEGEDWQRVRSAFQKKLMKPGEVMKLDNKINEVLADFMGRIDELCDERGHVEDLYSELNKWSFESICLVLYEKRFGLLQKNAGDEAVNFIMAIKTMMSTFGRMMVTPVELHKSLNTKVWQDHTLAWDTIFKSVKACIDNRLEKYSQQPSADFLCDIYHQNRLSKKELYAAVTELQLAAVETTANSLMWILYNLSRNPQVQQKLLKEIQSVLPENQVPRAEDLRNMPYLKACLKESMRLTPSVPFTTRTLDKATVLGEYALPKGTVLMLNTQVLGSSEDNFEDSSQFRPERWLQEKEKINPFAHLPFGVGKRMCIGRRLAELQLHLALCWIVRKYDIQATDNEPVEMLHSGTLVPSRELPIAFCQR
Method: (i) Material and Reagents:
Substrates (1 mM) reconstituted in isopropanol
1. Preparation of Cell Suspension • On the day of the assay, washed the monolayer of V79-CYP24 cells once with 1×PBS buffer and then trypsinized for 5 min at room temperature (approx. 22° C.). Added 1×PBS. Collected cells into tube, centrifuged cells (500×g, 5 min) and resuspended in DMEM+1% BSA media. Counted cells and adjusted density to 2 million/1 mL.
2. Cell Plating • Added 80 μl of cell suspension to appropriately labeled wells of a 96-well plate. Incubated plate for 45 minutes at 37° C. in a humidified atmosphere containing 5% CO2.
3. Compound Addition • Added 10 μl of inhibitor (10^−6 to 10^−10 M) and then after 35-40 min added 10 μl of substrate [^3H-1β]-1α,25(OH)2D3 (20 nM) for 2 hours at 37° C. in a humidified atmosphere containing 5% CO2. Both inhibitor and substrate were prepared in DMEM with 1% BSA media.
4. Lipid Extraction and Counting • Added 250 μl of methanol to stop the reaction and mixed. Added […] of dichloromethane, covered block and vortexed. Added […] of dichloromethane again, added […] of saturated KCl and vortexed. Centrifuged at 3000 rpm for 30 min. Triplicate 100 μl aliquots of aqueous fraction were mixed with 200 μl of scintillation fluid and the radioactivity was measured using a scintillation counter. All values were normalized for background. (iii) Results: • 1. […] (iv) Reference: 1. PCT Patent Application Serial No. PCT/CA03/00620

[4] = system: OVCAR-3 cells; assay: [3H]-Thymidine proliferation assay with OVCAR-3 cells; assay type: cell-based; conditions: ovarian cancer cells, 6 days, 3H-thymidine incorporation
Method: 1. Preparation of Suspension • When OVCAR-3 cells were ˜50% confluent, aspirated media. Washed cells with 1×PBS. Trypsinized with trypsin-EDTA, collected cells from the tissue culture flask, centrifuged (200×g, 5 min) and resuspended in media.
2. Cell Plating. • Counted the cells and adjusted the cell density to 11.4×10^3 to provide 2000 cells in 175 μl (for 1 well). Distributed cell suspension into a 96 well plates at 175 μl (2000 cells) per well. Incubated plate for 24 h at 37° C. in a humidified atmosphere plus 5% CO2. • Substrate addition. • Added 25 μl of compound (final concentration 10^−7 M, 5×10^−8 M 10^−8 M, 5×10^−9 M, 10^−9 M, 10^−10M or 0 M) into each designated well. Incubated plates for 6 days without changing media and drugs at 37° C. in a humidified atmosphere plus 5% CO2.
3. [^3H]-Thymidine incorporation • Added ^3H-thymidine at 0.02 μCi per well and incubated at 37° C. in a humidified atmosphere plus 5% CO2 for 6 h.
4. Plate Harvesting. • Aspirated all media and washed cells with 1×PBS. Trypsinized cells for 30 min at 37° C. in a humidified atmosphere plus 5% CO2. Harvested cells onto a 96 well filter plate (Millipore) using a Tomtec Cell Harvestor, according to manufacturers instructions.
5. Scintillation Counting. • Added 25 μl of scintillation fluid per well. Counted the plate using a scintillation counter. Results: Compounds (20R)-I(a), (20R)-I(c) and (20R)-I(e) all inhibited the proliferation of OVCAR-3 cells.

SMILES | Levels of calcium in the urine [1] | CYP24 mRNA induction, activity as % of that for calcitriol at 100 nM [2] [%] | IC50 [3] [nM] | Inhibition of OVCAR-3 cell proliferation [4]
C=C1/C(=C\C=C2/CCC[C@]3(C)[C@@H]([C@H](C)CCCC(C)(C)O)CC[C@@H]23)C[C@@H](O)C[C@@H]1O [calcitriol, 1α,25-Dihydroxy vitamin D3] | significant increase |  |  | 
C=C1/C(=C\C=C2/CCC[C@]3(C)C([C@H](C)C/C=C/C(=N\OC)C4CC4)=CC[C@@H]23)C[C@@H](O)C[C@@H]1O [(20R)-I(c)] |  | 30 | 85.9 | inhibited
C=C1/C(=C\C=C2/CCC[C@]3(C)C([C@H](C)C/C=C/C(=N\OC)C(F)(F)F)=CC[C@@H]23)C[C@@H](O)C[C@@H]1O [(20R)-I(a)] |  | 54 | 488 | inhibited
